Values of other authors in Sander's compilation of Henry's law constants (doi:10.1016/s0045-6535(00)00505-1).

Experiment: Henry solubility constant Hcp at 298.15 K (mol/(m3 Pa))
Conditions: reference: Staudinger and Roberts (2001); cited value

Compound | Henry solubility constant Hcp
ClCC(Cl)(Cl)Cl [1,1,1,2-tetrachloroethane] | 0.024
CC(Cl)(Cl)Cl [1,1,1-trichloroethane] | 0.00059
ClCC(Cl)Cl [1,1,2-trichloroethane] | 0.011
C=C(Cl)Cl [1,1-dichloroethene] | 0.00034
ClCC(Cl)CCl [1,2,3-trichloropropane] | 0.036
CC(Cl)CCl (centres undefined) [1,2-dichloropropane] | 0.0034
Cc1ccccc1C [1,2-dimethylbenzene] | 0.002
Cc1cccc(C)c1 [1,3-dimethylbenzene] | 0.0014
Cc1ccc(C)cc1 [1,4-dimethylbenzene] | 0.0013
CCCCO[N+](=O)[O-] [1-butyl nitrate] | 0.0088
CC(=O)c1ccccc1 [1-phenylethanone] | 1.1
CC(=O)C(=O)O [2-oxopropanoic acid] | 3000
CCCC(C)O[N+](=O)[O-] (centres undefined) [2-pentyl nitrate] | 0.0037
CC(C)c1ccccc1 [(2-propyl)-benzene] | 0.0012
O=Cc1ccccc1 [benzaldehyde] | 0.38
c1ccccc1 [benzene] | 0.0017
ClC(Cl)Br [bromodichloromethane] | 0.004
CBr [bromomethane] | 0.0017
Clc1ccccc1 [chlorobenzene] | 0.0027
CCCl [chloroethane] | 0.00084

Compound | Henry solubility constant Hcp
C=CCl [chloroethene] | 0.00039
ClC(Br)Br [dibromochloromethane] | 0.0086
FC(F)(Cl)Cl [dichlorodifluoromethane] | 3.1e-05
ClCCl [dichloromethane] | 0.0036
CSC [dimethyl sulfide] | 0.0053
CC#N [ethanenitrile] | 0.51
CC(=O)OO [ethanoic peroxyacid] | 7.3
CCc1ccccc1 [ethylbenzene] | 0.0013
OCOO [hydroxymethyl hydroperoxide] | 16000
CI [iodomethane] | 0.002
CS [methanethiol] | 0.0028
COO [methyl hydroperoxide] | 3.1
Cc1ccccc1 [methylbenzene] | 0.0015
CCCCC(=O)O [pentanoic acid] | 23
CC(C)=O [propanone] | 0.28
ClC(Cl)=C(Cl)Cl [tetrachloroethene] | 0.00059
ClC(Cl)(Cl)Cl [tetrachloromethane] | 0.00034
BrC(Br)Br [tribromomethane] | 0.017
ClC=C(Cl)Cl [trichloroethene] | 0.001
